Measurements: US8545816B2, “Benzoic acid ester compounds, compositions, uses and methods related thereto” (Ferrer Internacional, S.A., priority 2005, dated 2013)

What was measured:
[1] = cited from earlier work; for Absorbance: UV region absorbed; for Protection nm: wavelength range of protection
[2] = Phototransposition under UVB lamp irradiation (UV absorption spectrum / TLC follow-up); type: physicochemical; conditions: for time to complete phototransposition (conversion to the dibenzoylmethane / benzophenone sunscreen): solution in methanol
Method: A solution of 5 mg of 1-phenylvinyl 4-methoxybenzoate in 10 mL of methanol was irradiated with UVB lamps ([…]) for 20 minutes at 35° C. […] The conversion to benzoyl-4-methoxybenzoyl-methane was observed from the beginning, being the complete conversion in 5 minutes.
A sample of 4 mL of a solution containing 0.231 mg of 1-(4-methoxyphenyl)-vinyl 4-tert-butylbenzoate in 50 mL of methanol was irradiated with UVB lamps (60 W·m^−2) for 10 minutes at 35° C. The conversion to avobenzone was completed in 5 minutes.
A sample of 4 mL of a solution containing 0.400 mg of 1-(4-tert-butylphenyl)-vinyl 4-methoxybenzoate in 50 mL of methanol was irradiated with UVB lamps (60 W·m^−2) for 10 minutes at 35° C. The conversion to avobenzone was completed in 5 minutes.
A solution containing 5 mg of 4-benzoyloxy-2-methoxy-benzenesulfonic acid in 10 mL of methanol was irradiated with UVB lamps (60 W·m^−2) for 20 minutes at 35° C. The absorption spectrum was then recorded minute by minute. The conversion to sulisobenzone was complete in 10 minutes.
A sample of 4 mL of a solution containing 0.395 mg of 3-diethylaminophenyl benzoate in 50 mL of methanol was irradiated with UVB lamps (60 W·m^−2) for 20 minutes at 35° C. The phototransformation to 4-diethylamino-2-hydroxybenzophenone was completed in 10 minutes.
A sample of 5 mg of 3-methoxyphenyl benzoate in 10 mL of polydimethylsiloxane (viscosity 10000 cSt) was irradiated with UVB lamps (60 W·m^−2) for 15 hours and 20 minutes at 35° C. The phototransformation to oxybenzone was completed in 40 minutes.
A solution of 5 mg of 1-phenylvinyl 4-tert-butylbenzoate in 10 mL of tert-butanol was irradiated with UVB lamps (60 W·m^−2) for 5 hours at 35° C.

Row | Compound | Absorbance [1] | Protection nm [1] | time to complete phototransposition (conversion to the dibenzoylmethane / benzophenone sunscreen) ([2]; UVB lamps 60 W·m^−2, 35° C.) [min] | further results
1 | COc1cc(O)c(C(=O)c2ccccc2)cc1S(=O)(=O)O [Sulisobenzone, 5-benzoyl-4-hydroxy-2-methoxy-benzenesulfonic acid] | UVB, UVA II^2 | 260-375 nm | – | –
2 | COc1cc(OC(=O)c2ccccc2)ccc1S(=O)(=O)O [4-Benzoyloxy-2-methoxybenzene-sulfonic acid] | – | – | 10 | –
3 | CCN(CC)c1cccc(OC(=O)c2ccccc2)c1 [3-diethylaminophenyl benzoate, 3-Diethylaminophenyl benzoate] | – | – | 10 | –
4 | COc1ccc(C(=O)c2ccccc2)c(O)c1 [Oxybenzone, 2-hydroxy-4-methoxybenzophenone] | UVB, UVA II^2 | 270-350 nm | – | –
5 | COc1cccc(OC(=O)c2ccccc2)c1 [3-methoxyphenyl benzoate, 3-Methoxyphenyl benzoate] | – | – | – | time to complete phototransformation to oxybenzone ([2]; in polydimethylsiloxane (viscosity 10000 cSt), UVB lamps 60 W·m^−2, 35° C.): 40 min
6 | C=C(OC(=O)c1ccc(OC)cc1)c1ccccc1 [1-phenylvinyl 4-methoxybenzoate, 1-Phenylvinyl 4-methoxybenzoate] | – | – | 5 | crude reaction spectrum after irradiation ([2]; methanol, UVB lamps, 20 minutes, 35° C.): new absorption band in UVA zone
7 | C=C(OC(=O)c1ccc(OC)cc1)c1ccc(C(C)(C)C)cc1 [1-(4-Tert-butylphenyl)-vinyl 4-methoxybenzoate] | – | – | 5 | –
8 | C=C(OC(=O)c1ccc(C(C)(C)C)cc1)c1ccccc1 [1-phenylvinyl 4-tert-butylbenzoate, 1-Phenylvinyl 4-tert-butyl-benzoate] | – | – | – | products detected after irradiation (thin layer chromatography, 1H-NMR) ([2]; tert-butanol, UVB lamps 60 W·m^−2, 5 hours, 35° C.): Some different compounds were detected by thin layer chromatography (hexane/ethyl acetate 2:1), one of said compounds being benzoyl-4-tert-butylbenzoylmethane
9 | C=C(OC(=O)c1ccc(C(C)(C)C)cc1)c1ccc(OC)cc1 [1-(4-Methoxyphenyl)-vinyl 4-tert-butylbenzoate] | – | – | 5 | –
10 | COc1ccc(C(=O)CC(=O)c2ccc(C(C)(C)C)cc2)cc1 [Avobenzone, 4-tert-butyl-4′-methoxydibenzoylmethane] | UVA I^1 (340-400 nm) | 320-400 nm | – | –
